Measurements published in patent US20130266557A1, “METHODS FOR TREATMENT OF A SARCOMA USING AN EPIMETABOLIC SHIFTER (COENZYME Q10)” (priority 2009, published 2013).

How the values were obtained:
[1] = human plasma; cited from earlier work
[2] = system: NCIES0808 cells; assay: Antibody microarray analysis of protein levels; format: cell-based, human
Description: NCIES0808 cells were received from SBH in T165 flasks (×55). […] The cell morphology was examined closely under a microscope and the cells were noted to appear healthy with no visual signs of contamination or intracellular inclusions.
A 500 μM Q10 stock was made using the same protocol outlined for the PCR arrays. The media was exchanged in every flask with 50 μM and 100 μM Q10 media being placed into the appropriate flasks. The cells were incubated for 3 hr and 6 hr in the Q10 formulated media and the cells were harvested. Each flask was washed with 10 ml of ice cold PBS and trypsinized with 5 ml of trypsin-EDTA. The cells were harvested by gentle pipetting and the enzyme action was stopped by addition of 30 ml complete media. The cells were centrifuged at 1200 rpm for 5 minutes and media was aspirated from the tube leaving behind the cell pellet for protein extraction.
The proteins were extracted from the cells as per page 2; sub-category IA; of the manufacture's Product Information Sheet, Sigma®, Panarama® Antibody Microarray EPRESS Profiler725, cat#: XP725. The protein material from the whole cell lysates was conjugated with Cy3 and Cy5 dyes, GE Healthcare, product #: 25-8009-86 Cy3 and 25-8009-87 Cy5 as per the manufacturer's instructions outlined in the above mentioned product sheet sub-category IIA. […] The arrays were analyzed using a Fuji FLA-5100 UV scanner at the 532 nm for the Cy3 dye and 635 nm for the Cy5 dye. […]
The evaluation of changes in protein concentration due to the presence of Q10 was evaluated through the utilization of antibody microarray methods. […]
Once data sets were collected for all arrays, the data was scrutinized against three major parameters. […] An evaluation of the positive and negative Cy3/Cy5 data (included as controls on the chip) and a visual inspection of the spectral density for a given spot it was determined that and array data point with a spectral density less than 10 was approaching the background level and deemed statistically irrelevant and removed from the data series. […]

[3] = rats, oral; cited from earlier work
[4] = system: mitochondrial preparation of NICES0808 sample; assay: 2-D gel analysis of mitochondrial preparation; format: cell-based, human; conditions: direction not given
Description: NCIES0808 cells were treated with Q10 separately in larger volumes for isolation of sufficient mitochondria for proteomic analysis. Cells were treated with media, 50 uM Q10 or 100 uM Q10 for 0, 3, 6, 24 and 48 hours in T175 flasks. Two flasks were grown for each condition and cells from the two were pooled during harvesting. After the required treatment time, cells were trypsinized and washed twice in ice cold TBS. Pelleted cells were snap frozen in liquid nitrogen and frozen at −80° C. until mitochondria were isolated. Mitochondria were isolated using manufacturers instructions available with the MitoProfile Mitosciences Isolation Kit for Cultured Cells (Mitosciences Inc, Eugene, Oreg.).
Before isoelectric focusing (IEF), samples were solubilized in 40 mM Tris, 7 M urea, 2 M thiourea, and 1% C7 zwitterionic detergent, reduced with tributylphosphine, and alkylated with 10 mM acrylamide for 90 min at room temperature. After the sample was run through a 10-kDa cutoff Amicon Ultra device with at least 3 volumes of the resuspension buffer, consisting of 7 M urea, 2 M thiourea, and 2% CHAPS to reduce the conductivity of the sample. One hundred micrograms of protein were subjected to IEF on 11-cm pH 3 to 10, pH 4 to 7 or pH 6 to 11 immobilized pH gradient strips (GE, Amersham, USA) to 100,000 volts hour. After IEF, immobilized pH gradient strips were equilibrated in 6 M urea, 2% SDS, 50 mM Tris-acetate buffer, pH 7.0, and 0.01% bromphenol blue and subjected to SDS-polyacrylamide gel electrophoresis on 8 to 16% Tris-HCl Precast Gel, 1 mm (Bio-Rad, USA). The gels were run in duplicate. They were fixed, stained in SYPRO Ruby, 80 mL/gel (Invitrogen, USA) and imaged on Fuji FLA-5100 laser scanner.
A mitochondrial preparation of NICES0808 sample was also analyzed for proteins and below, in Table 8, is the list of proteins the amount of which was modulated following treatment with CoQ10.

[5] = system: Ewing JDT cell line; assay: Protein expression in Ewing JDT cell line; format: cell-based
[6] = system: Ewing Sarcoma cell lines (JDT, 0808); assay: Combined antibody array, 2-D gel/MS and real time PCR microarray; format: cell-based; conditions: in response to CoQ10 treatment
From the text: Functional groups were identified using “The Database for Annotation, Visualization and Integrated Discovery’ [DAVID] that subdivided the genes in 42 major clusters. Maximum number of genes from the list were segregated within the “Regulation of Cellular Process” and “Metabolic Process” functional groups with the other proteins spread over functional groups including regulation of transcription, programmed cell death, cell development, cytoskeleton, nucleus, proteosome and organ development.

[7] = system: cancer patients; conditions: eight case histories, oral CoQ10; cited from earlier work

Coenzyme Q10 [CoQ10]
Share of the molecule found in the reduced form (Q10H2) [1]: 90% | Expression of CBP/p300 ([2]; ES0808 cell line, compared to baseline): increase | Decrease in expression (value = protein), discussion list ([2]; NCIES 0808 cells in response to CoQ10): HDAC2 and HDAC4 and mTOR | FOXO1a expression ([2]; treatment with 100 μM CoQ10): up regulated | Fraction of orally-administered CoQ10 absorbed [3]: 2-3% | Proteins Modulated in NCIES0808 cells treated with CoQ10 (value = protein) ([4]; gel spot 37): eukaryotic translation elongation factor 1 beta 2 | Proteins Modulated in NCIES0808 cells treated with CoQ10 (value = protein) ([4]; gel spot 108): retinoblastoma binding protein 4 isoform A | Proteins Modulated in NCIES0808 cells treated with CoQ10 (value = protein) ([4]; gel spot 172): cytoplasmic dynein IC-2 | Proteins Modulated in NCIES0808 cells treated with CoQ10 (value = protein) ([4]; gel spot 227): chaperonin containing TCP1, subunit 3 | Proteins Modulated in NCIES0808 cells treated with CoQ10 (value = protein) ([4]; gel spot 1000): TAR DNA binding protein | increase in Caspase 3 expression ([5]; 100 μM CoQ10, within one hour after exposure): 30% | Caspase 3 expression ([5]; one hour after CoQ10 treatment): significant increase | p53 expression ([5]; one hour after treatment with CoQ10): significant increase | Number of gene products whose expression is significantly influenced [6]: over 90 | Share of identified gene products down-regulated [6]: ~40% | Share of identified gene products up-regulated [6]: approximately 60% | Survival of cancer patients on therapy with CoQ10 [7]: 5-15 years
